Publication PMC9299109 (Iubmb Life, 2021)

Legend:
[1] = target: T1, BoFADS (FAD synthase from Brucella ovis) (Brucella ovis, UniProt A0A0H3AW96)
[2] = target: T1, BoFADS (FAD synthase from Brucella ovis); test: biochemical

T1 sequence (A0A0H3AW96 1-329): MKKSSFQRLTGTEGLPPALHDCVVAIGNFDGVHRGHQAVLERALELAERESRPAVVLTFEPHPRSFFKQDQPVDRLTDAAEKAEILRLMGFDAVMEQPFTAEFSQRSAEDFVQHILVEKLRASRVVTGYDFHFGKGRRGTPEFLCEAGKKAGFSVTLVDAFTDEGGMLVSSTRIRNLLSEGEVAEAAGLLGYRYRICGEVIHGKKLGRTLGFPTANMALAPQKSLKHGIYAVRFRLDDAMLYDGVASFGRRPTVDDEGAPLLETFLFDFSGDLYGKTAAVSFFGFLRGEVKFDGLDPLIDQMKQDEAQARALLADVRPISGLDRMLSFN

| SMILES | visible difference spectroscopy, FMN titration with ADP [1] | Kd [2] |
| --- | --- | --- |
| Nc1ncnc2c1ncn2[C@@H]1O[C@H](COP(=O)(O)OP(=O)(O)O)[C@@H](O)[C@H]1O [ADP] | titrated with oxidized FMN in the presence of ADP but not in its absence | – |
| Cc1cc2nc3c(=O)[nH]c(=O)nc-3n(C[C@H](O)[C@H](O)[C@H](O)COP(=O)(O)O)c2cc1C [FMN, flavin mononucleotide] | – | 290 ± 100 nM |
| Cc1cc2nc3c(=O)[nH]c(=O)nc-3n(C[C@H](O)[C@H](O)[C@H](O)CO)c2cc1C [RF, riboflavin] | – | 410 ± 60 nM |
